“Also recorded” adds a separate entry of the source.
Columns and labels:
p3xCPRE/Luc [1] = experiment: Activation of p3xCPRE/Luc by small molecular weight organic compounds (Table 6); assay type: cell-based, human; settings: luciferase activity 16 hours after exposure
Procedure: In the in vitro assay system described above, a stable HeLa cell line was generated that contains a stably-integrated copy of the CPRE-Luc gene.
HMECs and HeLa cells were transiently transfected with 1 μg of 3xCPRE-Luc and 0.1 μg of pRL-SV40. One day after transfection, cells were treated with the compounds listed in Table 6 Luciferase activities were determined 16 hours after exposure to the compounds. To generate stable HeLa cell lines that contain a stably-integrated copy of the CPRE-Luc gene, HeLa cells were transfected with p3xCPRE-Luc plus pcDNA-LacZ-Hyg (an expression vector containing the hygromycin drug resistance gene) using SuperFeet transfection reagent. Two days after transfection, cells were cultured in hygromycin (400 μg/ml)-containing selection medium until individual colonies were identified. The colonies were expanded and the presence of CPRE-Luc-containing clones was examined by inducible luciferase activity. […]

[2] = system: murine model of allergen-induced peritonitis; experiment: Murine model of allergen-induced peritonitis (Type 1 hypersensitivity), eosinophil recruitment; assay type: in vivo, mouse
Procedure: To evaluate the anti-inflammatory potential of compound A, a murine model of Type 1 hypersensitivity was used. In this model mice are sensitized to ovalbumin and subsequently challenged with ovalbumin by intraperitoneal injection. This leads to eosinophil recruitment and accumulation in the peritoneal cavity 24-48 hours after the challenge.
6-8 week old Balb/c mice (weighing 20-30 g) were given subcutaneous injections of ovalbumin in alum (0.4 ml of 100 μg ovalbumin and 3.3 mg of Alum Inject) on days 0 and 7. The mice were challenged on day 14 with an intraperitoneal injection of ovalbumin (10 μg in 0.2 ml saline). The mice were sacrificed and peritoneal lavage fluid collected 48 hours after the challenge. The peritoneal fluid was concentrated and slide smears made using a cytospin centrifuge. Slides were stained with Diff-Quik and differential counts obtained by counting 300 cells. Compound A was administered by intravenous injection, in a vehicle composed of 95% Liposyn and 5% Tween 20, 4 or 1 hour prior to challenge. Compound A was compared to dexamethosone administered orally at a dose of 2.5 mg/kg/d.
In a common allergic inflammation, balb/C mice were divided into two groups: control/vehicle and Compound G treated. They were then sensitized to ovalbumin on days 0 and 7 with a subcutaneous injection of ovalbumin absorbed in aluminum hydroxide. The treated group was dosed i.v. 50 mg/kg in liposyn/tween and vehicle one day prior to challenge. The mice were then challenged with an intraperitoneal injection of ovalbumin on day 14 and sacrificed 48 hrs post-challenge. Peritoneal fluid was collected and spun down onto slides. Slides were stained with DiffQuik and a differential performed.

p3xCPRE/Luc [3] = experiment: p3xCPRE/Luc reporter, transient transfection in HeLa cells; assay type: cell-based, human; settings: t-BHQ 25 μM
Procedure: HMEC cells (passage 20) and HeLa cells were seeded into 6 well plates and were grown to approximately 60-70% confluency. Cells were transfected with 2 μg (HeLa) or 1 μg (HMEC) each of p3xCPRE/Luc reporter and Nrf-2 expression vector (an expression vector containing the full-length murine Nrf-2 gene under the control of the CMV promoter (Asakura & Karino (1990) Circ Res, 66:1045-1066). Cells were cultured for an additional 48 hours, and luciferase activity was determined (Promega). An average of at least three independent determinations were made for each experimental sample. Results are expressed as ratio of firefly/renilla luciferase.
(§1) In an effort to determine the utility of the CPRE-Luc reporter construct for the identification of small molecular weight compounds that activate the CPRE, the p3xCPRE/Luc reporter was transiently transfected into both HeLa and endothelial cells (HMECs). […] Similar results were obtained in HeLa cells with both t-BHQ and compound A (FIG. 12b).
(§2) HMECs and HeLa cells were transiently transfected with 1 μg of 3xCPRE-Luc and 0.1 μg of pRL-SV40. One day after transfection, cells were treated with t-BHQ or compound A. Luciferase activities were determined 16 hours after exposure to tBHQ. To generate stable HeLa cell lines that contain a stably-integrated copy of the CPRE-Luc gene, HeLa cells were transfected with p3xCPRE-Luc plus pcDNA-LacZ-Hyg (an expression vector containing the hygromycin drug resistance gene) using SuperFect transfection reagent. Two days after transfection, cells were cultured in hygromycin (400 μg/ml)-containing selection medium until individual colonies were identified. The colonies were expanded and the presence of CPRE-Luc-containing clones was examined by inducible luciferase activity. All experiments are an average of at least three independent determinations for each experimental sample.

p3xCPRE/Luc [4] = experiment: p3xCPRE/Luc reporter, transient transfection in HMEC cells; assay type: cell-based, human; settings: t-BHQ 20 μM
Procedure: as §1, §2

| CPRE Activity: concentration to achieve a two-fold induction of CPRE activity over control (p3xCPRE/Luc [1]) [µM] | Compound | further results |
| --- | --- | --- |
| 0.7 | COc1cc(OC)c(-c2cc3ccccc3s2)cc1/C=C/C(=O)c1cc(OC)c(O)c(OC)c1 [O, 3-(5-Benzo[b]thiophene-2-yl-2,4-dimethoxy-phenyl)-1-(4-hydroxy-3,5-dimethoxyphenyl)-propenone] | – |
| 14 | COc1cc(OCC(=O)[O-])c(/C=C/C(=O)c2cc(OC)c(OC)c(OC)c2)cc1-c1cc2ccccc2s1.[Na+] [R, Sodium {4-benzo[b]thiophene-2-yl-5-methoxy-2-[3-oxo-3-(3,4,5-trimethoxyphenyl)-propenyl]phenoxy}-acetate] | – |
| 1.4 | COc1cc(OC)c(-c2cc3ccccc3s2)cc1/C=C/C(=O)c1cc(OC)c(OCC(=O)[O-])c(OC)c1.[Na+] [N, Sodium {4-[3-(5-benzo[b]thiophene-2-yl-2,4-dimethoxy-phenyl)acryloyl]-2,6-dimethoxyphenoxy}-acetate] | – |
| 1 | COc1cc(OC)c(C(=O)/C=C/c2cc(Br)c(OC)c(OC)c2)cc1OC [F, 1-(3-Bromo-4,5-dimethoxyphenyl)-1-(2,4,5-trimethoxy-phenyl)propenone] | – |
| 2.5 | COc1c(C(C)(C)C)cc(C(=O)/C=C/c2ccccc2)cc1C(C)(C)C [D, 1-(3,5-Di-tert-butyl-4-methoxyphenyl)-3-phenyl-propenone] | – |
| 2 | COc1ccc(COc2ccc(C(=O)/C=C/c3cc(OC)c(OC)c(OC)c3)cc2OC)cc1 [K] | – |
| 8 | COc1ccc(C(=O)/C=C/c2ccc(-c3cccs3)cc2)cc1OC [Compound I, 1-(3,4-Dimethoxy-phenyl)-3-(4-thiophen-2-ylphenyl)propenone] | – |
| 3 | COc1cc2c(cc1OC)C(=O)/C(=C/c1cc(Br)c(OC)c(OC)c1)CC2 [J, 2-(3-Bromo-4,5-dimethoxy-benzylidene)-6,7-dimethoxy-3,4-dihydro-2H-naphthalen-1-one.] | – |
| 2.5 | COc1cc(OC)c(-c2cc3ccccc3s2)cc1/C=C/C(=O)c1ccc(OC)c(OC)c1 [M, 3-(5-Benzo[b]thiophene-2-yl-2,4-dimethoxy-phenyl)-1-(3,4-dimethoxyphenyl)-propenone] | – |
| 25 | O=C(/C=C/c1ccccc1)c1ccccc1 [B, 1,3-diphenylpropenone] | – |
| 3 | COc1cc(/C=C/C(=O)c2ccc(OC)c(OC)c2OC)cc(-c2cccs2)c1OC [Compound G, 3-(3,4-Dimethoxy-5-thiophen-2-ylphenyl)-1-(2,3,4-trimethoxy-phenyl)propenone] | Inhibition of eosinophilia compared with vehicle controls ([2]; Compound G 50 mg/kg i.v., peritoneal fluid 48 hrs post-challenge): 39%; Eosinophil levels in peritoneal fluid (percent eosinophils) ([2]; Compound G 50 mg/kg/d intravenous): significantly decreased |
| 1 | COc1cc(OC)c(-c2cc3ccccc3s2)cc1/C=C/C(=O)c1cc(OC)c([O-])c(OC)c1.[Na+] [P, Sodium 4-[3-(5-benzo[b]thiophene-2-yl-2,4-dimethoxy-phenyl)acryloyl]-2,6-dimethoxyphenolate] | – |
| – | CC(C)(C)c1cc(O)ccc1O [t-BHQ, reference compound] | p3xCPRE/Luc activity (p3xCPRE/Luc [3]): significantly increased; p3xCPRE/Luc activity (p3xCPRE/Luc [4]): induced CPRE-dependent gene expression; also recorded: significantly increased |
| 0.7 | COc1ccc(-c2cccs2)cc1/C=C/C(=O)c1ccc(OCc2ccccn2)c(OC)c1 [L, 1-[3-Methoxy-4-(pyridin-2-ylmethoxy)-phenyl]-3-(2-methoxy-5-thiophen-2-yl-phenyl)propenone] | – |
| 5 | COc1ccc(/C=C/C(=O)c2cc(C(C)(C)C)c(OC)c(C(C)(C)C)c2)cc1 [Compound C, 1-(3,5-di-tert-butyl-4-methoxyphenyl)-3-(4-methoxyphenyl)-propenone] | – |
| 2 | COc1ccc(-c2cccs2)cc1/C=C/C(=O)c1cc(OC)c(OC)c(OC)c1 [H, 3-(2-Methoxy-5-thiophen-2-ylphenyl)-1-(3,4,5-trimethoxy-phenyl)propenone] | – |
| 2.5 | COc1cc(/C=C/C(=O)c2ccc(OC)c(OC)c2OC)cc(-c2cc3ccccc3s2)c1OC [Q, 3-(3-Benzo[b]thiophene-2-yl-4,5-dimethoxy-phenyl)-1-(2,3,4-trimethoxy-phenyl)propenone] | – |
| 12.5 | CCOc1cc(OCC)c(C(=O)/C=C/c2cc(Br)c(OC)c(OC)c2)cc1OCC [E, 3-(3-Bromo-4,5-dimethoxyphenyl)-1-(2,4,5-triethoxyphenyl)-propenone] | – |

From patent US7247714B2, “Protection against oxidative stress and inflammation by a cytoprotective response element” (Atherogenics, Inc., priority 2001, dated 2007)
